Laboratory results as given in US11103458B2, “Stimulant abuse-deterrent compositions” (4P-Pharma, priority 2015, dated 2021).
Several values for one entry are separate records, joined by “and”; a condition that tells them apart may be missing. Equal values may be shown once. Entries after “also recorded” stand apart in the source; their conditions may differ. Where a name gives a salt, the structure may show the parent alone. Read-outs that look alike come from different tables or passages of the source. Marks after values point to notes of the source that are not given here.

Key:
dogs [1] = details: general statement, not this study, cited from earlier work
Male C57BI mice = test: Apomorphine mediated inhibition of RITALIN®-induced hyperactivity in activity box (pilot study, Example 5); format: in vivo; details: for locomotion after apomorphine alone: given at 5 mg/kg, 5 mg/kg
Procedure: Male mice C57BI weighing about 22 g were used in the study.
Male C57BI mice weighing about 22 g were used in the study.
Mice were administered saline solutions of the two actives as follows:
Methylphenidate was dissolved in saline 0.9% to a concentration of 0.5 mg/ml,
Both compounds' solutions were administered at dose volume of […].
Animals' motor locomotion in four groups (1-4 M) was assessed in the activity box. Animals were placed in the activity box and several parameters were observed including movement time, distance, V-plan entries, margin vs. center time, and other parameters. Groups 1-3 M were monitored for 30 minutes each, during which all parameters were assessed at 2 minutes intervals. In the 4 M group, animals were monitored for 60 minutes with 2 minutes assessment intervals. The assessment in the activity box was done in total darkness (red light was used for illumination). The main parameters that were calculated in this study were the move time, total distance and vertical plan entry. The observation for groups 1-3 M were made during 30 minutes with 2 minutes calculation intervals of each parameter. In the fourth group (4 M) the observations were extended for 60 minutes with 2 minutes calculation intervals

mice = test: Apomorphine blocking of RITALIN®-induced hyperactivity at human equivalent dosing (second study, Example 6); format: in vivo; details: mice (n=4)
C57bl/6J male mice = test: Open Field Test (OFT, activity box) with Methylphenidate, Apomorphine and their combination (Example 7); format: in vivo; details: for effect on Methylphenidate-increased distance travelled and velocity: Methylphenidate 5 mg/kg, dose dependent; for Center Time / Distance / Rearing Time / Velocity: Day 1, group average
Procedure: Eight groups comprising eight or nine C57bl/6J male mice were assigned for this study. Methylphenidate (MPH) was used as the model inducer. […] Spontaneous activity in Open Field Test (OFT) was performed.
Each Test Item and vehicle formulation was administrated to 8/9 mice per group. The administration was performed PO or IP according to group allocation in Table 1.
The open field test (OFT) is a commonly used qualitative and quantitative measure of general locomotor activity and willingness to explore in rodents. Open Field test (OFT) was performed according to Pharmaseed SOP No. 113: “Open Field for Mice Testing”. OFT was performed 15 or 30 min after test item IP or PO administration, respectively.
Fifteen minutes after test item/vehicle administration, mice were placed at the center of an open field box (43×43×40 cm) approximately at the same time of the day. On each side of the open field box, two frames placed at 2 and 5 cm height with 16 photocell beams per side ensured movement detection. The computer defined grid lines that divided the open field into two compartments: margin and center. Several variables were recorded during a 15 minute session of spontaneous activity including: • Indices of motor exploratory activity: distance travelled, moving time, and velocity • Indices of habituation: distance travelled during the last 5-min period in percent of the first+last 5-min periods. • Indices of anxiety: percentage of distance travelled and time spent in the central zone of the open-field. • Curiosity activity: rearing episodes and time Open Field Test (Activity Box)
OFT was performed 15 or 30 min after test item IP or PO administration, respectively. The parameters measured were distance and velocity as indicators of general motility, time spent in center as an indicator for anxiety and rearing time as indicator of the animal's curiosity.

dogs [2] = test: Behavior observation: activity levels and clinical signs in dogs (Example 8); details: for video observation: behavior associated to hyperactivity: first 60-100 min
Procedure: (§1) Six groups comprising six dogs were assigned for this Example. Methylphenidate (MPH) was used as the model inducer. […] Behavioral observation was performed during 6 hours following test items administration and blood samples were taken on 4 dogs per group at 0.25, 0.5, 1, 1.5, 3, 4 and 6 hours post-administration for pharmacokinetic (PK) analysis.
Animals: Mixed breed dogs (5 Males+7 females/12/3 to 5 years/10.5 to 18.5 kg, from SPM Biocameltec) were used in the studies outlined in this example.
Administration of the test items: Each Test Item was administrated to 6 dogs per group. The administration was performed PO or IV according to group allocation in Table 3. The study was performed in 3 cycles and a period of wash-out of at least 10 days was respected between each cycle.
Behavior observation: The animals were observed every 10 minutes during the first 2 hours post administration, and every 20 minutes thereafter, for 6 hours. Observations included respiratory, circulatory, autonomic and central nervous systems, somatomotor activity and behavior pattern (e.g. sedation, respiration rate, changes in mentation, gait, and the like).

[3] = PK analysis of Methylphenidate and Apomorphine in dogs' plasma (Example 8); details: for change in PK profile on co-administration: t-test: no statistical significance
Procedure: as §1
Blood Collection and PK analysis: For blood collection, a 5 ml syringe was used and blood sampling was directly collected at the jugular vein. Blood samples were collected in K3-EDTA tubes at the following time points: 0.25, 0.5, 1, 1.5, 3, 4 and 6 hours post-administration (7 samples). At each time point, 6 ml of blood was collected for 4 drug-treated dogs. Plasma samples were analyzed using LC-MS/MS and PK analysis was performed using the PK Solutions Version 2.0 program.

dogs [4] = test: Apomorphine-induced emesis in dogs (Example 8); format: in vivo; details: for apomorphine-induced emesis: apomorphine IV 0.15 mg/kg, alone (group 3) or with MPH 1.7 mg/kg (group 5)
Text: Methylphenidate (MPH) was used as the model inducer.

CN1CCc2cccc3c2[C@H]1Cc1ccc(O)c(O)c1-3 [Apomorphine, apomorphine]
dose to induce vomiting in dogs (dogs [1]; IV): greater than 0.02 mg/kg | dose to induce vomiting in dogs (dogs [1]; PO): greater than 4 mg/kg | dose to induce vomiting in dogs (dogs [1]; SC): greater than 0.3 mg/kg | locomotion after apomorphine alone (Male C57BI mice; mice, activity box): caused a sudden ataxia in animals, with nearly still locomotion | locomotion after apomorphine alone (Male C57BI mice; mice, activity box, listed as apomorphine): induces hypoactivity and nearly ataxic behavior | effect on RITALIN®-induced hyperactivity (Male C57BI mice; apomorphine injected 5 minutes after RITALIN®, apomorphine 5 mg/kg, RITALIN® 8 mg/kg): totally abolished the effect of RITALIN®; also recorded: total dominance of the effect induced by apomorphine | entering the vertical plan (Male C57BI mice; apomorphine, mice, activity box): abolished | animals movement / RITALIN®-induced hyperactivity after apomorphine injection (mice; apomorphine 1.23 mg/Kg with RITALIN® 8.25 mg/Kg): dramatically decreased the animals movement | rearing time compared to Methylphenidate IP treated group (2M) (C57bl/6J male mice; Apomorphine 0.9 mg/kg IP in combination with Methylphenidate (7M), Day 1): significantly reduced rearing time | antagonism of Methylphenidate-caused elevation in locomotor activity (C57bl/6J male mice; Apomorphine 0.05-0.9 mg/kg IP with Methylphenidate 5 mg/kg): antagonized this effect in a dose-dependent manner | effect on Methylphenidate-increased distance travelled and velocity (C57bl/6J male mice; combination with Apomorphine 0.9 mg/kg IP (7M), Day 1): significantly reduced | effect on Methylphenidate-increased distance travelled and velocity (C57bl/6J male mice; combination with Apomorphine 0.3 mk/kg IP (6M), Day 1): significantly reduced | effect on MPH-induced clinical signs (dogs [2]; apomorphine administered concomitantly with MPH (group 5), IV): abolished these MPH-induced clinical signs | effect on MPH-induced increase in activity (dogs [2]; combination with Apomorphine 0.15 mg/kg IV (group 5), MPH 1.7 mg/kg IV, dogs): diminished the observed increases in activity; also recorded: significantly reduced the observed increase in activity; also recorded: significantly reduced these effects | video observation: behavior associated to hyperactivity (dogs [2]; group 5 (apomorphine 0.15 mg/kg + MPH 1.7 mg/kg IV)): only with circling episodes | plasma levels ([3]; Apomorphine IV 0.15 mg/kg and PO 0.027 mg/kg, dogs' plasma, especially following oral administration): low levels | change in PK profile on co-administration ([3]; Apomorphine co-administered with Methylphenidate, dogs): somewhat lower values | time to emesis post administration (dogs [4]; apomorphine IV 0.15 mg/kg (group 3 and group 5), dogs): 1 to 2 min | apomorphine-induced emesis (dogs [4]; dogs): inducing emesis | apomorphine-induced emesis (dogs [4]; dogs, listed as apomorphine): observed in all treated dogs | induction of emesis (dogs [4]; apomorphine PO 0.027 mg/kg (group 4), dogs): did not induce emesis | Recorded time for observed emesis following apomorphine administration, individual dogs (dogs [4]; group #3 Apo IV 0.15 mg/kg, Dog 1 to Dog 6, listed as Apo, 0.15 mg/kg): 1.0 minutes and 1.5 minutes and 1.1 minutes (2×) and 0.8 minutes and 0.9 minutes | Recorded time for observed emesis following apomorphine administration, Mean (dogs [4]; group #3 Apo IV 0.15 mg/kg, mean of 6 dogs): 1.1 min

COC(=O)C(c1ccccc1)C1CCCCN1 (centres unmarked) [Methylphenidate, methylphenidate HCl]
motor activity (move time and distance) (Male C57BI mice; RITALIN® 5 mg/kg, mice, activity box): induced hyperactivity | motor activity (move time and distance covered) (Male C57BI mice; RITALIN® 8 mg/kg, mice, activity box, HCl, 8 mg/kg): induced hyperactivity | change of move time and distance over time (Male C57BI mice; RITALIN® induced group, 30 minutes observation): no significant change over time | animals' activity post RITALIN® administration (mice; RITALIN® 8.25 mg/Kg): drastic increase in the animals' activity | Center Time (C57bl/6J male mice; MPH 5 mg/kg IP (2M)): 89.8 s | Distance (C57bl/6J male mice; MPH 5 mg/kg IP (2M)): 3147.1 cm | Rearing Time (C57bl/6J male mice; MPH 5 mg/kg IP (2M)): 114.3 s | Velocity (C57bl/6J male mice; MPH 5 mg/kg IP (2M)): 4.3 cm/s | Center Time (C57bl/6J male mice; MPH 5 mg/kg PO (3M)): 88.2 s | Rearing Time (C57bl/6J male mice; MPH 5 mg/kg PO (3M)): 104.5 s | Velocity (C57bl/6J male mice; MPH 5 mg/kg PO (3M)): 3.4 cm/s | Distance (C57bl/6J male mice; MPH 5 mg/kg PO (3M), p < 0.05 vs. 2M): 2198.4* cm | distance travelled and velocity compared to Vehicle-treated controls (1M) (C57bl/6J male mice; Methylphenidate 5 mg/kg IP (2M), Day 1, OFT, HCl): significantly increased; also recorded: caused elevation in locomotor activity | activity levels (dogs [2]; MPH IV 1.7 mg/kg (group 1), dogs, notably during the first 60-100 min, HCl, 1.7 mg/kg): caused increased activity levels; also recorded: induced increased activity levels | activity levels (dogs [2]; MPH IV 1.7 mg/kg (group 1), dogs, notably during the first 60-100 min, listed as MPH, HCl, 1.7 mg/kg): significantly increased dog activity levels | time until which clinical signs were observed post administration (dogs [2]; MPH IV 1.7 mg/kg (group 1), at least the 30 first minutes, up to 110 minutes in one dog): 50 to 70 min | activity levels (dogs [2]; Methylphenidate PO 0.3 mg/kg (group 2), dogs, score corresponding to normal dogs): did not induce significant modification of activity levels | video observation: behavior associated to hyperactivity (dogs [2]; group 1 (MPH IV 1.7 mg/kg)): constant barking, jumping, walking/circling and a very dynamic state | change in PK profile on co-administration ([3]; Methylphenidate co-administered with Apomorphine, dogs): somewhat higher values | effect of co-administration of Apomorphine on bioavailability or any other PK parameters ([3]; Methylphenidate, dogs): not affected | bioavailability ([3]; Methylphenidate, dogs, PO 0.3 mg/kg vs IV 1.7 mg/kg): comparable to values published previously in the literature
